What was measured:
DU-145 [1] = assay: Cytotoxicity against human DU-145 cells assessed as reduction in cell viability measured after 72 hrs by SRB assay; assay type: functional, cell-based; conditions: DU-145, 72 h
HT-29 = assay: Cytotoxicity against human HT-29 cells assessed as reduction in cell viability measured after 72 hrs by SRB assay; assay type: functional, cell-based; conditions: HT-29, 72 h
NCI-H460 [2] = assay: Cytotoxicity against human NCI-H460 cells assessed as reduction in cell viability measured after 72 hrs by SRB assay; assay type: functional, cell-based; conditions: NCI-H460, 72 h
HCT-116 [3] = assay: Cytotoxicity against human HCT-116 cells assessed as reduction in cell viability measured after 72 hrs by SRB assay; assay type: functional, cell-based; conditions: HCT-116, 72 h
UMUC3 [4] = assay: Cytotoxicity against human UMUC3 cells assessed as reduction in cell viability measured after 72 hrs by SRB assay; assay type: functional, cell-based; conditions: UMUC3, 72 h
PANC-1 [5] = assay: Cytotoxicity against human PANC-1 cells assessed as reduction in cell viability measured after 72 hrs by SRB assay; assay type: functional, cell-based; conditions: PANC-1, 72 h
W256 [6] = assay: Antitumour activity against Walker 256 adenocarcinoma cells implanted in Wistar rat assessed as increase in animal survival rate by measuring T/C ratio at 5 mg/kg, ip qd for 3 days administered on day 3,4,5 after tumor cell transplantation; assay type: functional; conditions: time 3 day
HCT-116 [7] = assay: Antitumour activity against human HCT-116 cells xenografted in Crl:Nu-Foxnl nu mouse assessed as inhibition of tumour growth at total effective dose of 100 mg/kg, ip measured on day 23; assay type: functional; conditions: HCT-116, ip, 552 h, time 23 day, read-out: TGI
Quadruplex DNA [8] = assay: Stabilization of 5'-FAM/3'-TAMRA labeled c-Myc promoter G4 quadruplex DNA FPu18 (unknown origin) assessed as change in melting temperature at 10 microM measured after 15 mins by FRET assay; assay type: nucleic-acid assay
Quadruplex DNA [9] = assay: Stabilization of 5'-FAM/3'-TAMRA labeled telomeric G4 quadruplex DNA F21T (unknown origin) assessed as change in melting temperature at 10 microM measured after 15 mins by FRET assay; assay type: nucleic-acid assay
Quadruplex DNA [10] = assay: Stabilization of 5'-FAM/3'-TAMRA labeled K-Ras G4 quadruplex DNA (unknown origin) assessed as change in melting temperature at 10 microM measured after 15 mins by FRET assay; assay type: nucleic-acid assay
[11] = Stabilization of ds 5'-FAM-d(TATAGCTATA-HEG-TATAGCTATA)-TAMRA-3' (unknown origin) assessed as change in melting temperature at 10 microM measured after 15 mins by FRET assay; conditions: Homo sapiens
LNCaP = assay: Cytotoxicity against human LNCaP cells assessed as reduction in cell viability measured after 72 hrs by SRB assay; assay type: functional, cell-based
MDA-MB-231 = assay: Cytotoxicity against human MDA-MB-231 cells assessed as reduction in cell viability measured after 72 hrs by SRB assay; assay type: functional, cell-based; conditions: MDA-MB-231, 72 h
W256 [12] = assay: Antitumour activity against Walker 256 adenocarcinoma cells implanted in Wistar rat assessed as increase in animal survival rate by measuring T/C ratio at 4 mg/kg, ip qd for 3 days administered on day 3,4,5 after tumor cell transplantation; assay type: functional; conditions: time 3 day
DU-145 [13] = assay: Antitumour activity against human DU-145 cells xenografted in Crl:Nu-Foxnl nu mouse assessed as inhibition of tumour growth at total effective dose of 40 mg/kg, ip measured on day 35; assay type: functional; conditions: DU-145, ip, 840 h, time 35 day, read-out: TGI
PANC-1 [14] = assay: Antitumour activity against human PANC-1 cells xenografted in Crl:Nu-Foxnl nu mouse assessed as inhibition of tumour growth at total effective dose of 16 mg/kg, iv measured on day 37; assay type: functional; conditions: PANC-1, iv, 888 h, time 37 day, read-out: TGI
UMUC3 [15] = assay: Antitumour activity against human UMUC3 cells xenografted in Crl:Nu-Foxnl nu mouse assessed as inhibition of tumour growth at total effective dose of 14 mg/kg, iv measured on day 23; assay type: functional; conditions: 552 h, time 23 day, read-out: TGI
MIA PaCa-2 [16] = assay: Cytotoxicity against human MIA PaCa-2 cells assessed as reduction in cell viability measured after 72 hrs by SRB assay; assay type: functional, cell-based; conditions: MIA PaCa-2, 72 h
W256 [17] = assay: Antitumour activity against Walker 256 adenocarcinoma cells implanted in Wistar rat assessed as increase in animal survival rate by measuring T/C ratio at 6.25 mg/kg, ip qd for 3 days administered on day 3,4,5 after tumor cell transplantation; assay type: functional; conditions: time 3 day
DU-145 [18] = assay: Antitumour activity against human DU-145 cells xenografted in Crl:Nu-Foxnl nu mouse assessed as inhibition of tumour growth at total effective dose of 48 mg/kg, ip measured on day 35; assay type: functional; conditions: DU-145, ip, 840 h, time 35 day, read-out: TGI
NCI-H460 [19] = assay: Antitumour activity against human NCI-H460 cells xenografted in Crl:Nu-Foxnl nu mouse assessed as inhibition of tumour growth at total effective dose of 30 mg/kg, ip measured on day 14; assay type: functional; conditions: 336 h, time 14 day, read-out: TGI
PC-3 = assay: Cytotoxicity against human PC-3 cells assessed as reduction in cell viability measured after 72 hrs by SRB assay; assay type: functional, cell-based; conditions: PC-3, 72 h
MCF7 = assay: Cytotoxicity against human MCF7 cells assessed as reduction in cell viability measured after 72 hrs by SRB assay; assay type: functional, cell-based; conditions: MCF7, 72 h
ASPC1 = assay: Cytotoxicity against human ASPC1 cells assessed as reduction in cell viability measured after 72 hrs by SRB assay; assay type: functional, cell-based; conditions: ASPC1, 72 h
W256 [20] = assay: Antitumour activity against Walker 256 adenocarcinoma cells implanted in Wistar rat assessed as increase in animal survival rate by measuring T/C ratio at 1 mg/kg, ip qd for 3 days administered on day 3,4,5 after tumor cell transplantation; assay type: functional; conditions: time 3 day
DU-145 [21] = assay: Antitumour activity against human DU-145 cells xenografted in Crl:Nu-Foxnl nu mouse assessed as inhibition of tumour growth at total effective dose of 6 mg/kg, ip measured on day 35; assay type: functional; conditions: DU-145, ip, 840 h, time 35 day, read-out: TGI
HCT-116 [22] = assay: Antitumour activity against human HCT-116 cells xenografted in Crl:Nu-Foxnl nu mouse assessed as inhibition of tumour growth at total effective dose of 5 mg/kg, ip measured on day 16; assay type: functional; conditions: HCT-116, ip, 384 h, time 16 day, read-out: TGI
MIA PaCa-2 [23] = assay: Antitumour activity against human MIA PaCa-2 cells xenografted in Crl:Nu-Foxnl nu mouse assessed as inhibition of tumour growth at total effective dose of 32 mg/kg, iv measured on day 26; assay type: functional; conditions: MIA PaCa-2, iv, 624 h, time 26 day, read-out: TGI
DU-145 [24] = assay: Antitumour activity against human DU-145 cells xenografted in Crl:Nu-Foxnl nu mouse assessed as inhibition of tumour growth at total effective dose of 24 mg/kg, ip measured on day 35; assay type: functional; conditions: DU-145, ip, 840 h, time 35 day, read-out: TGI

Which IC50 (DU-145 [1]) does the source give for `Cc1ccc([N+](=O)[O-])c2c(NCCCN(C)CCCNc3ccc([N+](=O)[O-])c4[nH]c5ccccc5c(=O)c34)c3ccccc3nc12` here?
Its IC50 is 44 nM.

And the IC50 (HT-29)?
Its IC50 is 230 nM.

What about the IC50 (NCI-H460 [2]) of the same compound?
Its IC50 is 55 nM.

And the IC50 (HCT-116 [3])?
Its IC50 is 74 nM.

What about the IC50 (UMUC3 [4]) of the same compound?
Its IC50 is 54 nM.

What about the IC50 (PANC-1 [5]) of the same compound?
Its IC50 is 110 nM.

What about the T/C (W256 [6]) of the same compound?
The T/C was 1000%.

And the inhibition in vivo at 100 mg/kg (HCT-116 [7])?
Its inhibition in vivo at 100 mg/kg is 52%.

What about the ΔTm (Quadruplex DNA [8]) of the same compound?
The ΔTm was 18.8 °C.

And the ΔTm (Quadruplex DNA [9])?
The ΔTm was 6.8 °C.

What about the ΔTm (Quadruplex DNA [10]) of the same compound?
Its ΔTm is 28.5 °C.

What about the ΔTm [11] of the same compound?
The ΔTm was 2.4 °C.

Which IC50 (DU-145 [1]) does the source give for `Cc1ccc(NCCNCCNc2c3ccccc3nc3cccc([N+](=O)[O-])c23)c2c(=O)c3ccccc3[nH]c12` here?
Its IC50 is 243 nM.

And the IC50 (LNCaP)?
The IC50 was 250 nM.

What about the IC50 (HT-29) of the same compound?
Its IC50 is 138 nM.

What about the IC50 (MDA-MB-231) of the same compound?
The IC50 was 137 nM.

And the IC50 (PANC-1 [5])?
Its IC50 is 212 nM.

What about the T/C (W256 [12]) of the same compound?
Its T/C is 350%.

What about the inhibition in vivo at 40 mg/kg (DU-145 [13]) of the same compound?
Its inhibition in vivo at 40 mg/kg is 61%.

And the inhibition in vivo at 16 mg/kg (PANC-1 [14])?
Its inhibition in vivo at 16 mg/kg is 75%.

And the inhibition in vivo at 14 mg/kg (UMUC3 [15])?
The inhibition in vivo at 14 mg/kg was 46%.

What about the ΔTm (Quadruplex DNA [8]) of the same compound?
Its ΔTm is 28.5 °C.

And the ΔTm (Quadruplex DNA [9])?
Its ΔTm is 37.7 °C.

What about the ΔTm (Quadruplex DNA [10]) of the same compound?
Its ΔTm is 28.1 °C.

For `Cc1ccc([N+](=O)[O-])c2c(NCCCN3CCN(CCCNc4ccc(C)c5[nH]c6ccc(O)cc6c(=O)c45)CC3)c3ccccc3nc12`, which IC50 (DU-145 [1]) is on record?
The IC50 was 46 nM.

What about the IC50 (LNCaP) of the same compound?
The IC50 was 300 nM.

What about the IC50 (HT-29) of the same compound?
The IC50 was 61 nM.

And the IC50 (NCI-H460 [2])?
Its IC50 is 40 nM.

And the IC50 (HCT-116 [3])?
Its IC50 is 47 nM.

What about the IC50 (MDA-MB-231) of the same compound?
The IC50 was 48 nM.

What about the IC50 (MIA PaCa-2 [16]) of the same compound?
Its IC50 is 67 nM.

What about the T/C (W256 [17]) of the same compound?
Its T/C is 300%.

What about the inhibition in vivo at 48 mg/kg (DU-145 [18]) of the same compound?
The inhibition in vivo at 48 mg/kg was 25%.

And the inhibition in vivo at 30 mg/kg (NCI-H460 [19])?
Its inhibition in vivo at 30 mg/kg is 6%.

What does the source list for `CN(CCCNc1c2ccccc2nc2cccc([N+](=O)[O-])c12)CCCNc1ccc([N+](=O)[O-])c2[nH]c3ccc(O)cc3c(=O)c12`?
IC50 (DU-145 [1]): 43 nM; IC50 (LNCaP): 53 nM; IC50 (PC-3): 52 nM; IC50 (HT-29): 22 nM; IC50 (NCI-H460 [2]): 14 nM; IC50 (HCT-116 [3]): 15 nM; IC50 (UMUC3 [4]): 14 nM; IC50 (MCF7): 74 nM; IC50 (MDA-MB-231): 20 nM; IC50 (PANC-1 [5]): 32 nM; IC50 (MIA PaCa-2 [16]): 24 nM; IC50 (ASPC1): 135 nM; T/C (W256 [20]): 350%; inhibition in vivo at 6 mg/kg (DU-145 [21]): 60%; inhibition in vivo at 5 mg/kg (HCT-116 [22]): 32%; inhibition in vivo at 32 mg/kg (MIA PaCa-2 [23]): 30%; inhibition in vivo at 24 mg/kg (DU-145 [24]): 52%; ΔTm (Quadruplex DNA [8]): 26.3 °C; ΔTm (Quadruplex DNA [9]): 34 °C; ΔTm (Quadruplex DNA [10]): 29.7 °C
